In patent US4224332A, “1-Aza-[2,2,2]-bicyclooctanes and anti-depressant and anti-parkinsonian compositions thereof” (Pharmindustrie, priority 1978, dated 1980):
Entries after “also recorded” stand apart in the source; their conditions may differ. Like-named read-outs stand apart in the source and are kept apart here.

Tests used:
uptake of the choline = test: inhibition of the uptake of choline by synaptosomes of the rat's brain, striatum; assay type: biochemical; settings: in vitro; for IC50: rat brain synaptosomes, striatum
Text: (§1) The results are expressed by an inhibiting concentration IC50, which represents the dose of product in micromoles per liter reducing by 50% the uptake of the noradrenaline (NA), the dopamine (DA), the serotonine (5-HT), or the choline in the specific regions of the brain (hypothalamus,striatum, medulla+pons) where the corresponding neurons predominate.

[1] = tested on: hypothermia caused by reserpine; test: action on hypothermia caused by reserpine in mice; assay type: in vivo; settings: Mus musculus, po, read-out: ED50 p.o. (dose exerting an antihypothermic effect equal to 50% of that caused by 15 mg/kg per os of imipramine)
Description: The results are expressed by an ED50 or dose of product, in mg/kg, capable of exerting an antihypothermic effect equal to 50% of the antihypothermic effect caused by 15 mg/kg (per os) of imipramine.

[2] = tested on: uptake of the dopamine (DA); test: inhibition of the uptake of dopamine (DA) by synaptosomes of the rat's brain, striatum; assay type: biochemical; settings: in vitro; for IC50: rat brain synaptosomes, striatum
Text: as §1

[3] = tested on: uptake of the serotonine (5-HT); test: inhibition of the uptake of serotonine (5-HT) by synaptosomes of the rat's brain, medulla + pons; assay type: biochemical; settings: in vitro; for IC50: rat brain synaptosomes, medulla + pons
Text: as §1

[4] = tested on: uptake of the noradrenaline (NA); test: inhibition of the uptake of noradrenaline (NA) by synaptosomes of the rat's brain, hypothalamus; assay type: biochemical; settings: in vitro; for IC50: rat brain synaptosomes, hypothalamus
Text: as §1

[5] = acute toxicity, oral, male mouse CD1; settings: in vivo, 3 days observation
Text: The acute toxicities of the compounds of formula (I) have been determined on the male mouse CD1 (Charles River), the products being administered orally. The LD50 have been calculated, after 3 days observation, by the cumulative method of J. J. REED and H. MUENCH. (Amer. J. Hyg. 27, 493, 1938), which is relied upon herein for this purpose and the disclosure incorporated by reference.

[6] = compared with imipramine and nomifensine

| Structure (SMILES) | IC50 (uptake of the choline) | ED50 ([1]; mice, p.o., reserpine hypothermia) | IC50 [2] | IC50 [3] | IC50 [4] | inhibiting activity on the neuronal uptake of the choline, in words (uptake of the choline; [6]) | ED50 [1] | LD50 at 72 h [5] | inhibiting effect on uptake of the dopamine at the level of the striatum, in words [2, 6] | inhibiting effect on 5-HT uptake, in words ([3]; compared with imipramine) | inhibiting effect on NA uptake, in words ([4]; compared with imipramine) |
| --- | --- | --- | --- | --- | --- | --- | --- | --- | --- | --- | --- |
| CN(C)CCCN1c2ccccc2CCc2ccccc21 [Imipramine, reference compound] | 30000 nM | 3 mg/kg | 55000 nM | 80 nM | 130 nM |  |  |  |  |  |  |
| c1ccc(C2CN3CCC2(c2ccccc2)CC3)cc1 (stereo not drawn) [Example 4, 3,4-diphenyl-1-aza-[2,2,2]-bicyclooctane] | 25000 nM |  | 600 nM | 300 nM | 45 nM | active on all the four mediators used; also recorded: near to that of the imipramine; also recorded: exerts on the neuronal uptake of the choline an inhibiting activity | 2 mg/kg | 200 mg/kg | active on all the four mediators used; also recorded: very superior to that of imipramine; also recorded: comes near to the nomifensine | active on all the four mediators used; also recorded: near to that of the imipramine | active on all the four mediators used; also recorded: near to that of the imipramine |
